Assay [1] has as its target T1, Protein deacetylase HDAC6 (Homo sapiens, UniProt Q9UBN7).
T1 sequence (Q9UBN7 whole entry): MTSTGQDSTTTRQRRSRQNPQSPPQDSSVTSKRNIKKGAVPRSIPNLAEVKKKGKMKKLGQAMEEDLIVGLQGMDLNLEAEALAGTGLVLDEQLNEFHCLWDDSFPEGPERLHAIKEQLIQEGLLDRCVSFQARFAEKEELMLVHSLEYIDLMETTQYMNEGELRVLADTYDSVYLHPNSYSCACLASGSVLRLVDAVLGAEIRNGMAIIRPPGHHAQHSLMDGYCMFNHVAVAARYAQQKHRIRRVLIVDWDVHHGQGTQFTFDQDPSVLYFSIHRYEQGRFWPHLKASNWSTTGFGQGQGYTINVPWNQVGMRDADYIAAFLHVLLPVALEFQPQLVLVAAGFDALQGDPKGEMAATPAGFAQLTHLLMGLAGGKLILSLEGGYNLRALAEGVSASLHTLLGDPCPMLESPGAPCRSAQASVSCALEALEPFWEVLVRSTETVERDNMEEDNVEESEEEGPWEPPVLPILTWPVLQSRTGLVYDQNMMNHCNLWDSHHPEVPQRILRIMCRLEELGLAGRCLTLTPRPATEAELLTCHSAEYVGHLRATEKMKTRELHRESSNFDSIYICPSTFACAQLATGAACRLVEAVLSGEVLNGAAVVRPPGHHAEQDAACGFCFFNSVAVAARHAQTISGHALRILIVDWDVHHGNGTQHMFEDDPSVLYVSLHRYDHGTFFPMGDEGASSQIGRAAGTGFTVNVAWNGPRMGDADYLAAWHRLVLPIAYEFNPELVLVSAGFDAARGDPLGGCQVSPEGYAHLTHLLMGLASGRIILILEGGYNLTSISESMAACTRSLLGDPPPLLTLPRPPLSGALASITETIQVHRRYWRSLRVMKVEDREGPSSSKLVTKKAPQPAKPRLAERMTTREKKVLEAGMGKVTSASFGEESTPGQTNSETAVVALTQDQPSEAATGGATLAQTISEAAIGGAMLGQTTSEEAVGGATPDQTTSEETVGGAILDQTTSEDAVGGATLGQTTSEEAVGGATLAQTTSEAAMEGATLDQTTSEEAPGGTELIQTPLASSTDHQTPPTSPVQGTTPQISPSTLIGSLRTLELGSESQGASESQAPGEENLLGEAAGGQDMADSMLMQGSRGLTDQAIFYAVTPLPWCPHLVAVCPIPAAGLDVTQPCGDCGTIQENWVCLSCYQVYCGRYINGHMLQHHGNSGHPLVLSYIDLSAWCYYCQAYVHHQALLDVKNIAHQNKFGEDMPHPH

The target of a further assay is Histone deacetylase 1 (Homo sapiens, UniProt Q13547).
Sequence of Histone deacetylase 1 (Q13547 whole entry): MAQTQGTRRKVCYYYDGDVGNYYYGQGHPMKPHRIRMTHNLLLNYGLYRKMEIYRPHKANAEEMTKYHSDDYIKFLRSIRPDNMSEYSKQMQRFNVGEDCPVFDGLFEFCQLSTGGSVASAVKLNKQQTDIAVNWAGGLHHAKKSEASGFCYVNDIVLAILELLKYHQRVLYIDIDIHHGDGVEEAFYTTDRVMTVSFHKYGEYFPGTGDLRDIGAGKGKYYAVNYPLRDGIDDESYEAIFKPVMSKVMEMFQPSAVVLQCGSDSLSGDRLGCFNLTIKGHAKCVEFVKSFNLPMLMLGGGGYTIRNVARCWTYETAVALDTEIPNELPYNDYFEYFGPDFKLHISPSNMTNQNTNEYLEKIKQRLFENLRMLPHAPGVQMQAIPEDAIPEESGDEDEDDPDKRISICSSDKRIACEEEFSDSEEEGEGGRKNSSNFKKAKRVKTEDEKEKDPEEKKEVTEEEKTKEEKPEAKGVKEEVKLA

In general, IC50 refers to the midpoint of a concentration-inhibition curve. A higher IC50 goes with a need for much substance. In the case of `CCCCN(Cc1ccc(C(=O)NO)cc1)C(=O)Nc1cccc(N(C)C)c1`, the IC50 is 6.12 nM in assay [1] and 604 nM at Histone deacetylase 1.

`O=C(NCc1ccc(C(=O)NO)cc1)Nc1ccc(CO)cc1`: the IC50 in assay [1] worked out at 8.3 nM; against Histone deacetylase 1, 1060 nM.

Source of the values: ChEMBL document CHEMBL5726379, “Selective histone deactylase 6 inhibitors” (2017).
